Laboratory results reported in ChEMBL document CHEMBL4715772, “A facile stereoselective synthesis of dispiro-indeno pyrrolidine/pyrrolothiazole-thiochroman hybrids and evaluation of their antimycobacterial, anticancer and AchE inhibitory activities” (Bioorg Med Chem, 2016).
Values after ≈ are worked out from the molar mass of the structure shown. Active and inactive are the calls of the source. The calls are words filed in the database; no cut-off is given here.

Key:
[1] = Cytotoxicity against African green monkey Vero cells assessed as cell viability after 72 hrs by MTT assay; assay type: cell-based; details: chlorocebus sabaeus, read-out: MNCC
[2] = system: Mycobacterium tuberculosis; assay: Antimycobacterial activity against Mycobacterium tuberculosis H37Rv assessed as inhibition of bacterial growth at 0.17 mM by microdilution alamar blue broth assay relative to control; assay type: functional
[3] = system: Mycobacterium tuberculosis; assay: Antimycobacterial activity against Mycobacterium tuberculosis H37Rv assessed as inhibition of bacterial growth by microdilution alamar blue broth assay; assay type: functional, organism-based
[4] = system: Mycobacterium tuberculosis; assay: Antimycobacterial activity against Mycobacterium tuberculosis H37Rv assessed as inhibition of bacterial growth at 3.198 mM by microdilution alamar blue broth assay; assay type: functional, organism-based

With `NCC[C@H](O)C(=O)N[C@@H]1C[C@H](N)[C@@H](O[C@H]2O[C@H](CN)[C@@H](O)[C@H](O)[C@H]2O)[C@H](O)[C@H]1O[C@H]1O[C@H](CO)[C@@H](O)[C@H](N)[C@H]1O` [AMIKACIN] the MNTC at 72 h [1] was > 6.25 µg/mL, the inhibition at 170 µM [2] was 30% and the IC90 [3] was 80 nM. The MIC [3] was 0.16 µM (≈ 0.0937 µg/mL) and the Activity [4] was “Active”.
